Read-outs that look alike come from different tables or passages of the source.
Key:
COX-2 = target: T1, COX-2 (Homo sapiens, UniProt P35354); assay: Human COX-2 enzyme activity in human whole blood (LPS-induced, thromboxane B2 EIA); format: cell-based; conditions: for inhibition at 1 µM: read-out: COX-2 Inhibition (% at 1 μM); for inhibition at 10 µM: read-out: COX-2 Inhibition (% at 10 μM)
T1 construct: To induce COX-2, lipopolysaccharide (LPS) from E. coli; endogenous in cells; host or cells: heparinised human whole blood from donors, with COX-2 induced by E. coli LPS
T1 sequence (P35354 18-604): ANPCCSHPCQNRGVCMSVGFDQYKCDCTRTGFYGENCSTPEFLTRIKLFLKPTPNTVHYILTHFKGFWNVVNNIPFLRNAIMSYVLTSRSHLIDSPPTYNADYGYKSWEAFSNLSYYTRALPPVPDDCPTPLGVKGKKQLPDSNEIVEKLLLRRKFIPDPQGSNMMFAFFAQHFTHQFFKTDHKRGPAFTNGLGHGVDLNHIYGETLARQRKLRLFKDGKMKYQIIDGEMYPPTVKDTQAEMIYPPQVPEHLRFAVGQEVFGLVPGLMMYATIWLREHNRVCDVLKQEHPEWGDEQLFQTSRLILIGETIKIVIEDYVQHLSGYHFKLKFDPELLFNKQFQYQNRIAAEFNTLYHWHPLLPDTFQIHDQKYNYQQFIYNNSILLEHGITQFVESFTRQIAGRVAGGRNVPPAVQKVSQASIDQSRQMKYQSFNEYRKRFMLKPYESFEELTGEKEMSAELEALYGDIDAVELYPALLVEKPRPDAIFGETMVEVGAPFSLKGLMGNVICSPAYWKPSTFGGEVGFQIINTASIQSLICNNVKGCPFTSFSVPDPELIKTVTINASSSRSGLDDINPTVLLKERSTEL
Procedure: (§1) The blood was transported to the laboratory on ice packs and used within 1.5 hours of collection. Upon receipt in the laboratory, the blood was allowed to come to room temperature for 15 minutes prior to distribution in 1 mL aliquots per well of 24 well tissue culture plates. […] Test compounds were dissolved in DMSO, at 1000 fold the final desired concentration, and further diluted, as indicated, in DMSO. One μL of each dilution of the test compound was added per well, in duplicate wells; wells not receiving test compound (e.g., basal, background or control wells) received 1 μL DMSO. […] Louis, Mo., Catalogue No. […] Louis, Mo., Catalogue No. […] (Again, basal, background or control wells not stimulated with A23187 received 1 μL of DMSO.) At 5 hours after the addition of the test compound, all incubations were terminated by placement on ice and the addition of 2 mM EGTA (100 μL of 20 mM EGTA, tetrasodium, in PBS (phosphate buffered saline) without Ca^++ and Mg^++, pH 7.2)). […] One hundred μL of plasma was removed from each blood sample and added to 1 mL of methanol in new 15 mL polypropylene centrifuge tubes, vortexed, and stored overnight at -20° C. […] The samples were assayed for thromboxane B2 using EIA kits supplied by Cayman Chemical Co. […] The % inhibition for COX-1 and COX-2 enzyme activity in human whole blood by the test compounds, at the indicated concentrations, are given in Table 1.

COX-1 = target: T2, COX-1 (Homo sapiens, UniProt P23219); assay: Human COX-1 enzyme activity in human whole blood (A23187-stimulated, thromboxane B2 EIA); format: cell-based; conditions: for inhibition at 100 µM: read-out: COX-1 Inhibition (% at 100 μM)
T2 construct: endogenous in cells; host or cells: heparinised human whole blood from donors, stimulated with the calcium ionophore A23187
Procedure: as §1

[1] = 1 μM, human whole blood, LPS induction
[2] = 10 μM, human whole blood, LPS induction
[3] = 100 μM, human whole blood, A23187 stimulation

T2 sequence (P23219 24-599): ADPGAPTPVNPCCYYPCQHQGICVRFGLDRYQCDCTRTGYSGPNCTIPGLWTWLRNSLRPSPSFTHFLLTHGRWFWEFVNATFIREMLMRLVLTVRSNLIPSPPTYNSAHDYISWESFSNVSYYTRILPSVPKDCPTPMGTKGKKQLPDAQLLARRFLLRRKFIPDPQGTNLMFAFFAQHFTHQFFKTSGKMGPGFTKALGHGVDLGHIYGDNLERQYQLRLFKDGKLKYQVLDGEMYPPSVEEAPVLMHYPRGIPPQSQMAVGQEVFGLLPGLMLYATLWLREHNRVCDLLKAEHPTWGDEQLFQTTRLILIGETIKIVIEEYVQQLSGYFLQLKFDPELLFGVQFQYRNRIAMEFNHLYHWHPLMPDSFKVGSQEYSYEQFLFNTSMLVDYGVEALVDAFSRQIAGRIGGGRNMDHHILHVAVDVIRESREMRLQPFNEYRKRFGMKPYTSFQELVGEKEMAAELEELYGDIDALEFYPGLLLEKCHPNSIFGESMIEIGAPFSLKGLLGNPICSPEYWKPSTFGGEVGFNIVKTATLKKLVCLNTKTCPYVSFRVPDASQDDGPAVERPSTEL

Structure (SMILES)	melting point [°C]	inhibition at 1 µM (COX-2; [1]) [%]	inhibition at 10 µM (COX-2; [2]) [%]	inhibition at 100 µM (COX-1; [3]) [%]	also measured
CS(=O)(=O)c1ccc(-c2cc(CO[N+](=O)[O-])nn2C2CCCCCC2)cc1 [Example 2d, 1-(1-Cycloheptyl-3-((nitrooxy)methyl)pyrazol-5-yl)-4-(methylsulfonyl)benzene]	119 to 120	60	90	35	–
CS(=O)(=O)c1ccc(-c2cc(/C=C\CCO[N+](=O)[O-])nn2C2CCCCC2)cc1 [Example 4f, 1-(3-((1Z)-4-(Nitrooxy)but-1-enyl)-1-cyclohexylpyrazol-5-yl)-4-(methylsulfonyl)benzene]	137 to 138	70	95	20	–
Cc1ccc(-n2nc(C(=O)CCCO[N+](=O)[O-])cc2-c2ccc(S(C)(=O)=O)cc2)cc1 [Example 12e, 1-(1-(4-Methylphenyl)-5-(4-(methylsulfonyl)phenyl)pyrazol-3-yl)-4-(nitrooxy)butan-1-one]	107 to 109	70	95	55	–
CS(=O)(=O)c1ccc(-c2cc(C(=O)CCCO[N+](=O)[O-])nn2-c2ccc(Br)cc2)cc1 [Example 14e, 1-(1-(4-Bromophenyl)-5-(4-(methylsulfonyl)phenyl)pyrazol-3-yl)-4-(nitrooxy)butan-1-one]	150 to 152	70	95	90	–
Cc1ccc(-c2[nH]nc(COCCCO[N+](=O)[O-])c2-c2ccc(S(N)(=O)=O)cc2)cc1 [Example 20g, 4-(5-(4-Methylphenyl)-3-((3-(nitrooxy)propoxy)methyl)pyrazolyl)benzenesulfonamide]	62	–	–	–	–
CS(=O)(=O)c1ccc(-c2cc(C(=O)CCCO[N+](=O)[O-])nn2-c2ccc(C(F)(F)F)cc2)cc1 [Example 23e, 1-(5-(4-(Methylsulfonyl)phenyl)-1-(4-(trifluoromethyl)phenyl)pyrazol-3-yl)-4-(nitrooxy)butan-1-one]	152 to 154	35	100	45	–
CS(=O)(=O)c1ccc(-c2cc(CCO[N+](=O)[O-])nn2C2CCCCC2)cc1 [Example 30d, 4-(1-Cyclohexyl-3-(2-(nitrooxy)ethyl)pyrazol-5-yl)-1-(methylsulfonyl)benzene]	117	–	–	–	–
CS(=O)(=O)c1ccc(-c2cc(CCCO[N+](=O)[O-])nn2C2CCCCC2)cc1 [Example 31e, 4-(1-Cyclohexyl-3-(3-(nitrooxy)propyl)pyrazol-5-yl)-1-(methylsulfonyl)benzene]	77	–	–	–	–
NS(=O)(=O)c1ccc(-c2c(-c3ccccc3)noc2COCC(F)(F)C(F)(F)CO[N+](=O)[O-])cc1 [Example 33b, 4-(3-Phenyl-5-((2,2,3,3-tetrafluoro-4-(nitrooxy)butoxy)methyl)isoxazol-4-yl)benzenesulfonamide]	46	90	100	85	–
NS(=O)(=O)c1ccc(-c2c(-c3ccccc3)noc2COCC(F)(F)C(F)(F)C(F)(F)CO)cc1 [Example 34a, 4-(5-((2,2,3,3,4,4-Hexafluoro-5-hydroxypentyloxy)methyl)-3-phenylisoxazol-4-yl)benzenesulfonamide]	–	–	–	–	inhibition at 1 µM (COX-2): 90%; inhibition at 10 µM (COX-2): 100%; inhibition at 100 µM (COX-1): 95%
NS(=O)(=O)c1ccc(-c2c(-c3ccccc3)noc2COCC(F)(F)C(F)(F)C(F)(F)CO[N+](=O)[O-])cc1 [Example 34b, 4-(5-((2,2,3,3,4,4-Hexafluoro-5-(nitrooxy)pentyloxy)methyl)-3-phenylisoxazol-4-yl)benzenesulfonamide]	38 to 39	–	–	–	inhibition at 1 µM (COX-2): 90%; inhibition at 10 µM (COX-2): 100%; inhibition at 100 µM (COX-1): 75%
CS(=O)(=O)c1ccc(-c2cc(C(=O)CO[N+](=O)[O-])nn2-c2ccccn2)cc1 [Example 35c, 1-(5-(4-(Methysulfonyl)phenyl)-1-(2-pyridyl)pyrazol-3-yl)-2-(nitrooxy)ethan-1-one]	–	–	–	–	COX-2 Inhibition (% at 1 μM) (COX-2; [1]): 25%; COX-2 Inhibition (% at 10 μM) (COX-2; [2]): 30%; COX-1 Inhibition (% at 100 μM) (COX-1; [3]): 0%
NS(=O)(=O)c1ccc(-c2c(-c3ccccc3)noc2COCCS(=O)(=O)CCO)cc1 [Example 37b, 4-(5-((2-((2-Hydroxyethyl)sulfonyl)ethoxy)methyl)-3-phenylisoxazol-4-yl)benzenesulfonamide]	–	35	90	50	–
NS(=O)(=O)c1ccc(-c2c(-c3ccccc3)noc2COCCS(=O)(=O)CCO[N+](=O)[O-])cc1 [Example 37c]	–	–	–	–	COX-2 Inhibition (% at 1 μM) (COX-2; [1]): 20%; COX-2 Inhibition (% at 10 μM) (COX-2; [2]): 20%; COX-1 Inhibition (% at 100 μM) (COX-1; [3]): −15%
CS(=O)(=O)c1ccc(-c2cc(CNCCO)nn2C2CCCCC2)cc1 [Example 38c, 1-(1-Cyclohexyl-3-(((2-hydroxyethyl)amino)methyl)pyrazol-5-yl)-4-(methylsulfonyl)benzene]	–	15	25	10	–
COc1ccc(-n2nc(COCCCO[N+](=O)[O-])cc2-c2ccc(S(C)(=O)=O)cc2)cc1 [Example 39, 4-(1-(4-Methoxyphenyl)-3-((3-(nitrooxy)propoxy)methyl)pyrazol-5-yl)-1-(methylsulfonyl)benzene]	–	85	100	100	–
CS(=O)(=O)c1ccc(-c2cc(/C=C/CO[N+](=O)[O-])nn2C2CCCCC2)cc1 [Example 41, 1-(3-((1E)-3-(Nitrooxy)prop-1-enyl)-1-cyclohexylpyrazol-5-yl)-4-(methylsulfonyl)benzene]	–	0	45	40	–
CS(=O)(=O)c1ccc(-c2[nH]nc(C(=O)CCCO[N+](=O)[O-])c2-c2ccc(C#N)cc2)cc1 [Example 42e, 4-(5-(4-(Methylsulfonyl)phenyl)-3-(4-(nitrooxy)butanoyl)pyrazolyl)benzenecarbonitrile]	148 to 149	10	55	35	–
NS(=O)(=O)c1ccc(-c2cc(C(=O)CCCO)nn2C2CCCCC2)cc1 [Example 43g, 4-(1-Cyclohexyl-3-(4-hydroxybutanoyl)pyrazol-5-yl)benzenesulfonamide]	–	0	10	30	–
CS(=O)(=O)c1ccc(-c2cc(C(=O)CCCO)nn2-c2ccc(Cl)cc2)cc1 [Example 44d, 1-(1-(4-Chlorophenyl)-5-(4-(methylsulfonyl)phenyl)pyrazol-3-yl)-4-hydroxybutan-1-one]	–	30	60	10	–
CS(=O)(=O)c1ccc(-c2cc(C(=O)NCCO[N+](=O)[O-])nn2C2CCCCC2)cc1 [Example 45c, (1-Cyclohexyl-5-(4-(methylsulfonyl)phenyl)pyrazol-3-yl)-N-(2-(nitrooxy)ethyl)carboxamide]	168 to 170	–	–	–	–
CS(=O)(=O)c1ccc(-c2cc(CCCC(=O)OCCCO[N+](=O)[O-])nn2-c2ccc(C(F)(F)F)cc2)cc1 [Example 47f, 3-(Nitrooxy)propyl 4-(5-(4-(methylsulfonyl)phenyl)-1-(4-(trifluoromethyl)-phenyl)pyrazol-3-yl)butanoate]	–	30	65	85	–

From patent US7442802B2, “Cyclooxygenase-2 selective inhibitors, compositions and methods of use” (NitroMed, Inc., priority 2002, dated 2008)
